Test results: a melting point compilation (Tetko et al.)

**Q.** With `Cc1cc(OCc2ccc(C(=O)NN)cc2)ccc1Cl` as the compound, how does the melting point read?
**A.** 78 to 80 °C

**Q.** With `Cc1n[nH]c(SCC(=O)O)n1` as the compound, how does the melting point read?
**A.** 228 to 230 °C

**Q.** Which melting point does the source give for `CN1C(=O)Cc2cc(S)ccc21` here?
**A.** 104 to 106 °C

**Q.** For `O=C(O)c1nc(OCC(F)(F)F)ccc1Cl`, which melting point is on record?
**A.** 85 to 87 °C

**Q.** Which melting point does the source give for `COc1cc(Cl)c(C(=O)O)cc1OC` here?
**A.** 179 to 181 °C

**Q.** For `CCNC(=O)CCC(=O)O`, which melting point is on record?
**A.** 84 to 86 °C

**Q.** Which melting point does the source give for `CCC(C)NS(=O)(=O)c1cccc(N)c1` (configuration not stated) here?
**A.** 89 to 91 °C

**Q.** With `O=C(O)c1ccc(I)cc1Cl` as the compound, how does the melting point read?
**A.** 159 to 161 °C

**Q.** For `COc1ccc(C(=O)/C=C2\NC(=O)CS2)cc1`, which melting point is on record?
**A.** 210 to 212 °C

**Q.** With `Oc1cc(Br)ccc1C(F)(F)F` as the compound, how does the melting point read?
**A.** 89 to 91 °C

**Q.** Which melting point does the source give for `O=c1[nH]c(CCl)nc2ccsc12` here?
**A.** 190 to 193 °C

**Q.** With `CC(C)CN1C(=O)CN=C1S` as the compound, how does the melting point read?
**A.** < 17 °C

**Q.** For `Cc1cc(CN2CCNCC2)no1`, which melting point is on record?
**A.** 59 to 71 °C

**Q.** For `COc1cc(C=O)ccc1OCc1c(C)cc(C(C)(C)C)cc1C`, which melting point is on record?
**A.** 139 to 141 °C

**Q.** Which melting point does the source give for `Cn1cnc2cc(Br)ccc2c1=O` here?
**A.** 156 to 158 °C

**Q.** Which melting point does the source give for `CC(Oc1cccc(C=O)c1)C(=O)O` (configuration not stated) here?
**A.** 65 to 67 °C

**Q.** With `CCc1cc(O)ccc1Cl` as the compound, how does the melting point read?
**A.** 45 to 50 °C

**Q.** With `CCOC(=O)c1nc(NCCc2ccccc2)sc1C` as the compound, how does the melting point read?
**A.** 109 to 111 °C

**Q.** Which melting point does the source give for `NC(=NO)c1ccc(-c2ccccc2)cc1` here?
**A.** 182 to 184 °C

**Q.** For `NC(=O)c1c(-c2ccc(C(F)(F)F)cc2)csc1N`, which melting point is on record?
**A.** 158 to 160 °C

**Q.** Which melting point does the source give for `Cn1c(Cl)nnc1-c1ccccc1` here?
**A.** 161 to 163 °C

**Q.** For `NCc1ccccc1CS(=O)(=O)N1CCOCC1`, which melting point is on record?
**A.** 90 to 92 °C

**Q.** Which melting point does the source give for `O=C(CCCl)NC(=O)NCc1ccccc1` here?
**A.** 117 to 119 °C

**Q.** Which melting point does the source give for `Cc1ccc(NC(=O)C(C)Cl)cc1S(=O)(=O)N1CCOCC1` (configuration not stated) here?
**A.** 151 to 153 °C

**Q.** For `CCCCS(=O)(=O)N1CCCCC1C(=O)O` (configuration not stated), which melting point is on record?
**A.** 78 to 80 °C

**Q.** Which melting point does the source give for `CC(C)Oc1cnc(C(=O)O)cn1` here?
**A.** 109 to 111 °C

**Q.** Which melting point does the source give for `N#Cc1ccc(N2CCNC(=O)C2)cc1` here?
**A.** 224 to 226 °C

**Q.** For `Nc1ccc2c(c1)C(=O)NS2(=O)=O`, which melting point is on record?
**A.** 286 to 288 °C

**Q.** With `CC(C)c1nnc(S)n1N` as the compound, how does the melting point read?
**A.** 117 to 119 °C

**Q.** With `O=[N+]([O-])c1cc2c(cc1S(=O)(=O)Cl)OCCCO2` as the compound, how does the melting point read?
**A.** 125 to 127 °C

**Q.** For `O=C(O)CSc1csc(-c2ccc(Br)cc2)n1`, which melting point is on record?
**A.** 178 to 180 °C

**Q.** With `O=C(O)C1CCS(=O)(=O)C1` (configuration not stated) as the compound, how does the melting point read?
**A.** 135 to 137 °C

**Q.** For `CC(C)=CC(=O)Nc1scc(-c2ccccc2)c1C(=O)O`, which melting point is on record?
**A.** 202 to 204 °C

**Q.** With `CC(CO)NC(=O)c1ccc(N)cc1` (configuration not stated) as the compound, how does the melting point read?
**A.** 174 to 176 °C

**Q.** For `O=C(O)c1ccc(-c2cccs2)o1`, which melting point is on record?
**A.** 169 to 171 °C

**Q.** For `CS(=O)(=O)c1ccc(OCC(=O)O)cc1`, which melting point is on record?
**A.** 172 to 174 °C

**Q.** With `O=C(O)C1CC1C1CCCCC1` (configuration not stated) as the compound, how does the melting point read?
**A.** 52 to 54 °C

**Q.** For `COC(=O)CCc1c(C)nn(-c2ccc(C(=O)O)cc2)c1C`, which melting point is on record?
**A.** 166 to 175 °C

**Q.** For `ClCc1cc(Cl)c2c(c1)OCCCO2`, which melting point is on record?
**A.** 59 to 63 °C

**Q.** Which melting point does the source give for `Nc1nnc(SCc2ccc(F)cc2)s1` here?
**A.** 145 to 147 °C

**Q.** For `COc1ccccc1CNC(=O)C(C)Cl` (configuration not stated), which melting point is on record?
**A.** 113 to 115 °C

**Q.** With `CCOc1ccc2c(c1)CC(C(=O)O)CO2` (configuration not stated) as the compound, how does the melting point read?
**A.** 132 to 134 °C

**Q.** For `Cc1ccc(S(=O)(=O)N2Cc3ccccc3CC2C(=O)O)cc1` (configuration not stated), which melting point is on record?
**A.** 143 to 145 °C

**Q.** With `Cn1c(=O)[nH]c2cnccc21` as the compound, how does the melting point read?
**A.** 266 to 268 °C

**Q.** With `Cc1cccc(NC(=O)C=NO)c1C` as the compound, how does the melting point read?
**A.** 110 to 112 °C

**Q.** With `CCN(CC)c1nc2sc(C(=O)O)cc2s1` as the compound, how does the melting point read?
**A.** 191 to 193 °C

**Q.** Which melting point does the source give for `Clc1ccc2nnc(C3CCCO3)n2n1` (configuration not stated) here?
**A.** 139 to 141 °C

**Q.** For `COc1ccc(C)cc1-n1nnnc1S`, which melting point is on record?
**A.** 164 to 166 °C

**Q.** With `COC(=O)c1cc(Cl)c(O)c(Cl)c1` as the compound, how does the melting point read?
**A.** 117 to 121 °C

**Q.** For `Cn1cn[nH]c1=O`, which melting point is on record?
**A.** 134 to 136 °C

**Q.** For `Nc1cc(CCCc2cccs2)no1`, which melting point is on record?
**A.** 43 to 45 °C

**Q.** With `CC(C)(C)OC(=O)NC1CCCCC1(C)C(=O)O` (configuration not stated) as the compound, how does the melting point read?
**A.** 149 to 151 °C

**Q.** With `O=C(O)C1CCN(c2ccc3nnnn3n2)CC1` as the compound, how does the melting point read?
**A.** 199 to 201 °C

**Q.** With `N#CCn1c(CCl)nc2ccccc2c1=O` as the compound, how does the melting point read?
**A.** 143 to 145 °C

**Q.** For `NC(=O)C1OCCc2ccccc21` (configuration not stated), which melting point is on record?
**A.** 169 to 171 °C

**Q.** Which melting point does the source give for `O=C1CC(c2ccccc2)Nc2ccccc2N1` (configuration not stated) here?
**A.** 162 to 164 °C

**Q.** Which melting point does the source give for `O=C1Nc2c(Br)cc(F)cc2C1=O` here?
**A.** 215 to 217 °C

**Q.** With `CC(C)N1CCCC(Br)C1=O` (configuration not stated) as the compound, how does the melting point read?
**A.** 52 to 54 °C

**Q.** Which melting point does the source give for `COc1cccc(Oc2ccc(N)cc2)c1` here?
**A.** 62 to 64 °C

**Q.** Which melting point does the source give for `CCOC(=O)c1sc2cc(Cl)ccc2c1Cl` here?
**A.** 75 to 77 °C

**Q.** With `O=C1C(Br)CCN1c1cccc(Cl)c1` (configuration not stated) as the compound, how does the melting point read?
**A.** 89 to 91 °C

**Q.** With `CN1C(=O)C(=O)c2ccc(F)cc21` as the compound, how does the melting point read?
**A.** 137 to 139 °C

**Q.** Which melting point does the source give for `Cc1nc(Cl)c2c(-c3ccccc3)csc2n1` here?
**A.** 169 to 173 °C

**Q.** Which melting point does the source give for `O=Cc1cnn2cccnc12` here?
**A.** 149 to 151 °C

**Q.** With `N#CCCNc1ccc2c(c1)OCCO2` as the compound, how does the melting point read?
**A.** 83 to 85 °C

**Q.** With `NS(=O)(=O)c1cc(Cl)c(Br)s1` as the compound, how does the melting point read?
**A.** 147 to 149 °C

**Q.** Which melting point does the source give for `CNc1ccc(N)c(C(F)(F)F)c1` here?
**A.** 86 to 88 °C

**Q.** With `COC(=O)/C=C/c1cc(OC)c(OC)c(S(=O)(=O)Cl)c1` as the compound, how does the melting point read?
**A.** 160 to 162 °C

**Q.** Which melting point does the source give for `CS(=O)(=O)CCOc1ccc(Br)cc1` here?
**A.** 130 to 132 °C

**Q.** With `Cc1ccccc1-n1c(S)nc(O)cc1=O` as the compound, how does the melting point read?
**A.** 206 to 208 °C

**Q.** For `Cc1cc(F)c2c(c1)C(=O)C(=O)N2`, which melting point is on record?
**A.** 225 to 227 °C

**Q.** Which melting point does the source give for `Cc1ccc(Cl)cc1N1CC(C(=O)O)CC1=O` (configuration not stated) here?
**A.** 129 to 131 °C
